Data set [1] deals with T. b. rhodesiense strain STIB 900, trypomastigotes. Briefly: In vitro activity against T. b. rhodesiense, serial drug dilution assay. The conditions noted are these: for IC50: read-out: IC50 T. b. rhod. The method, then:
(§1) Drug stock solutions (10mg/ml) were in DMSO (100%). […] Selectivity index (SI) was calculated as IC50 L6 cells/IC50 parasite.

Data set [2] deals with axenic amastigotes of L. donovani, strain MHOM-ET-67/L82. Briefly: In vitro activity against L. donovani axenic amastigotes, serial drug dilution assay. Format: cell-based, Leishmania donovani. The conditions noted are these: axenic amastigotes, strain MHOM-ET-67/L82, means of two independent assays, read-out: IC50 L. don. axen. The method, then:
as §1

Data set [3] is described as follows: in vitro. As to conditions: rat. The method, then:
as §1

The test system of data set [4] is T. cruzi, strain Tulahuen C4, intracellular amastigotes. Briefly: microbe, parasite or virus in culture. The conditions noted are these: for IC50: read-out: IC50 T. cruzi; for selectivity ratio: rat, Selectivity index: IC50 Cytotoxicity L6/ IC50 T. cruzi. The method, then: as §1
Data set [5] concerns L. donovani strain MHOM-ET-67/L82 amastigotes. Briefly: in vitro. As to conditions: mouse, Selectivity index: IC50 Cytotoxicity macrophages/ IC50 L. donovani. Put shortly: (§2)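 Axenic amastigotes grown at pH 5.4 infected mouse peritoneal macrophages for 4 h before free parasites were washed off. Next day, seven 3-fold drug dilutions (30–0.04 μg/ml) were added for 96 h. Giemsa-stained infected macrophages were counted, burden reduction was taken vs untreated controls, and IC50 came from linear regression.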

Data set [6] relates to intracellular amastigotes of L. donovani strain MHOM-ET-67/L82. Briefly: Activity against Leishmania donovani intracellular amastigotes in mouse peritoneal macrophages. The conditions noted are these: for IC50: read-out: IC50 L. don. intracell. Put shortly:
as §2

Data set [7] concerns macrophages infected with L. donovani. Briefly: Cytotoxicity on macrophages infected with L. donovani. Format: cell-based, mouse.
Assay in data set [8]: as above
The conditions noted are these: mouse, macrophages infected with L. donovani, read-out: IC50 Cytotox. mac.inf. Format: cell-based, mouse.

A short description of data set [9]: In vitro cytotoxicity with mouse peritoneal macrophages (Alamar Blue). It counts as cell-based. The conditions noted are these: mouse. The method, then: After 96 h of incubation, the plates were inspected under an inverted microscope to assure sterility. […] The IC50 values were calculated by linear regression from the sigmoidal dose inhibition curves using SoftmaxPro software (Molecular Devices Cooperation, Sunnyvale, CA, USA).

The test system of data set [10] is P. falciparum strain K1. Briefly: In vitro activity against P. falciparum, serial drug dilution assay. On the procedure: as §1
Data set [11] deals with T.b.rhodesiense (STIB900). Briefly: T.b.rhodesiense (STIB900) acute mouse model. Format: in vivo. The conditions noted are these: daily oral administration of up to 25 mg/kg over a 4 day period, acutely infected mouse model. The method, then: The STIB900 acute mouse model mimics the first stage of the disease. Four female NMRI mice were used per experimental group. Each mouse was inoculated i.p. with 10^4 bloodstream forms of STIB900, respectively. Heparinized blood from a donor mouse with approximately 5x10^6 /ml parasitaemia was suspended in PSG to obtain a trypanosome suspension of […]. Each mouse was injected with 0.25 ml. Compounds were formulated in 100% DMSO, diluted 10-fold in distilled water. Compound treatment was initiated 3 days post-infection on four consecutive days for all administration routes (i.p., p.o.) in a volume of 0.1 ml/10 g. Three mice served as infected-untreated controls. […] Parasitaemia was monitored using smears of tail-snip blood twice a week after treatment for two weeks followed by once a week until 60 days post-infection. Mice are considered cured when there is no parasitaemia relapse detected in the tail blood over the 60-day observation period. Mean relapse days were determined as day of relapse post-infection of mice.

Details of data set [12]: method as in PMID 6813497. As to conditions: cited from earlier work.
Data set [13] relates to Entamoeba histolytica. The conditions noted are these: cited from earlier work.
For data set [14], the system named is L6 cells. Briefly: Cytotoxicity on L6 cells. On the procedure: as §1
For data set [15], the system named is T. brucei. Further details: method as in PMID 11302796. The conditions noted are these: cited from earlier work.
Where [16] appears, read: Leishmania donovani, Peritoneal macrophage, in Mus musculus, 96 h.
The mark [17] stands for this setting: macrophages infected with L. donovani, read-out: IC50 Cytotox. mac.inf.
The mark [18] stands for this setting: Plasmodium falciparum, K1, read-out: IC50 P. falc. K1.
Where [19] appears, read: strain STIB 900, trypomastigotes, means of two independent assays.
The mark [20] stands for this setting: rats, oral single dose 6.7 mg /kg.
Where [21] appears, read: read-out: IC50 P. falc. K1, strain K1, means of two independent assays.
Setting [22] is: read-out: IC50 Cytotox. L6, L6 cells, means of two independent assays.
Where [23] appears, read: strain Tulahuen C4, intracellular amastigotes, means of two independent assays.
[24] abbreviates: intracellular amastigotes in mouse peritoneal macrophages, strain MHOM-ET-67/L82, 96 h.
Where [25] appears, read: L6 cells, IC50 Cytotox. L6, L6 cells, means of two independent assays.

Where two headings read alike, the source gives them in different places.

For the molecule `CC1CS(=O)(=O)CCN1/N=C/c1ccc([N+](=O)[O-])o1` (stereo not shown) [Nifurtimox], the IC50 in data set [1] (Trypanosoma brucei) is 1.44 µM; in data set [2] (Leishmania donovani), 2760 nM; in data set [3] (IC50 Cytotox. L6), 87 µM; in [4] (Trypanosoma cruzi, TULAHUEN), 0.19 µM; in data set [6] (setting [16]) it was 20.7 µM; in data set [7] (setting [17]), greater than 34.8 µM. Further, in [1] (in vitro), the “Activity against T. b. rhodesiense (in words)” value is given as “active”. For the same molecule, the selectivity ratio in [1] (rat, Selectivity index: IC50 Cytotoxicity L6/ IC50 T. b. rhodesiense) worked out at 60; in data set [4] it was 458. The selectivity ratio at 96 h in data set [5] stood at 13. The IC50 at 96 h turned out to be 34.8 µM in [8] and 15.7 µM in data set [9].

Turning to `O=C(Nc1ccc([N+](=O)[O-])cc1Cl)c1cc(Cl)ccc1O` [Niclosamide], the IC50 in data set [1] (Trypanosoma brucei) is 1.67 µM; in data set [2] (Leishmania donovani), 150 nM; in data set [10] (setting [18]), 1.14 µM; in data set [3] (IC50 Cytotox. L6), 2.3 µM; in [4] (Trypanosoma cruzi, TULAHUEN) it was 2.49 µM; in data set [6] (setting [16]), greater than 0.31 µM. In [6] (at a concentration of 0.1 μg/ml), the “Activity against intracellular amastigotes at a fixed concentration” value is “inactive”. Besides, the “Concentrations toxic to mouse macrophages” value in data set [7] (mouse, 96 h) is greater than 0.3 µg/mL. Also, the MCC at 96 h in [8] worked out at 1010 nM.

For `CC(=O)OC[C@H]1O[C@@H]([S-])[C@H](OC(C)=O)[C@@H](OC(C)=O)[C@@H]1OC(C)=O.CCP(CC)CC.[Au+]` [Auranofin], the “In vivo efficacy (reduction of parasitemia or increased survival time)” value in data set [11] was “no in vivo efficacy was observed”. In [1], the “Selectivity index: IC50 Cytotoxicity L6/ IC50 T. b. rhodesiense” value stood at 479. Further, the IC50 in data set [1] (setting [19]) is 0.01 µM; in data set [2], 110 nM; in data set [10] (setting [21]), 1.67 µM; in [14] (setting [22]) it was 4.79 µM; in [4] (setting [23]) it was 2.27 µM; in data set [6] (setting [24]), greater than 1.47 µM. For the same molecule, the IC50 in [7] (setting [17]) was 4.42 µM. Moreover, the Bioavailability in data set [12] is on record as 17–23%. Moreover, the “Terminal half-life based on blood levels” value in data set [12] (setting [20]) was 29 h. Moreover, in data set [12] (setting [20]), the “Terminal half-life based on serum levels” value is 43 h. Also, the “Times better activity against Entamoeba histolytica than the standard drug metronidazole” value in [13] is 10 times. The “Activity against intracellular amastigotes at a fixed concentration” value in data set [6] is on record as “did not exhibit activity”.

As to `O=C(O)c1nn(Cc2ccc(Cl)cc2Cl)c2ccccc12` [Lonidamine], the IC50 in data set [1] (Trypanosoma brucei) was 135 µM; in data set [2] (Leishmania donovani), 8660 nM; in data set [10] (setting [18]), greater than 15.6 µM; in [3] (IC50 Cytotox. L6) it was 273 µM; in data set [4] (Trypanosoma cruzi, TULAHUEN), 177 µM; in data set [6] (setting [16]), greater than 93.4 µM. Moreover, the IC50 in [7] (setting [17]) was greater than 93.4 µM. Besides, the selectivity ratio at 96 h in data set [5] was greater than 11. In addition, in [8], the IC50 at 96 h is greater than 93.4 µM.

`CCC[C@@]1(CCc2ccccc2)CC(O)=C([C@H](CC)c2cccc(NS(=O)(=O)c3ccc(C(F)(F)F)cn3)c2)C(=O)O1` [Tipranavir]: the IC50 is 26.4 µM in data set [1] (Trypanosoma brucei); less than 3000 nM in data set [2] (Leishmania donovani); 1640 nM in data set [2]; 44.6 µM in data set [10] (setting [18]); 53.4 µM in [3] (setting [25]); 28.2 µM in [4] (Trypanosoma cruzi, TULAHUEN). Besides, the IC50 in data set [6] (setting [16]) and in data set [7] (setting [17]) was greater than 49.8 µM throughout. In addition, the selectivity ratio at 96 h in data set [5] was greater than 30. For the same molecule, the IC50 at 96 h in [8] (mouse peritoneal macrophages infected with L. donovani) is greater than 50 µM.

Take `NC1CCC(C23CC4CC(CC(C4)C2)C3)CC1` (stereo not shown) [1-adamantyl-4-amino-cyclohexane]: in [15], the “Times more effective than rimantadine” value is 20 to 25 times.

On to `NNC(=O)c1ccncc1` [Izoniazide], for which the IC50 in [1] (setting [19]) was greater than 656 µM; in [2], greater than 656000 nM; in data set [10] (setting [21]), greater than 36.5 µM; in [14], greater than 656 µM; in data set [6] (setting [24]), greater than 219 µM; in [7] it was greater than 219 µM.

Take `Cc1cc(C2CCCCC2)n(O)c(=O)c1` [Ciclopirox olamine]: the IC50 in [1] (Trypanosoma brucei) came to 0.8 µM; in data set [2] (Leishmania donovani), 1640 nM; in data set [10] (setting [18]), 3.75 µM; in [3] (IC50 Cytotox. L6) it was 1.04 µM; in data set [4] (Trypanosoma cruzi, TULAHUEN), 2.49 µM; in data set [6] (setting [16]), 9.09 µM. Moreover, in [7] (setting [17]), the IC50 was greater than 11.2 µM. Besides, the selectivity ratio at 96 h in [5] (mouse peritoneal macrophages versus L. donovani amastigotes, axenic or intracellular IC50 not specified) worked out at 9. The IC50 at 96 h in data set [8] and in [9] was 20.3 µM in each case.

Regarding `OC(Cn1cncn1)(Cn1cncn1)c1ccc(F)cc1F` [Fluconazole], the IC50 in data set [1] (Trypanosoma brucei) is 273 µM; in data set [2] (Leishmania donovani), 211000 nM; in [14] (setting [22]), greater than 294 µM; in data set [3] (setting [25]), greater than 294 µM; in data set [4] (Trypanosoma cruzi, TULAHUEN), 9.96 µM; in data set [6] (setting [16]), greater than 98 µM. The selectivity ratio in data set [4] was greater than 30. In addition, in data set [8], the IC50 at 96 h is greater than 98 µM.

As for Bacitracine, the 50% inhibitory concentration (IC50) is greater than 70.3 µM in [1] (setting [19]); greater than 70300 nM in [2]; 19.8 µM in data set [10] (setting [21]); 42.2 µM in [14] (setting [22]); 47.1 µM in data set [4] (setting [23]); greater than 21.1 µM in data set [6] (setting [24]).
